This note sets out measurements from article PMC8011931, “Identification, Structure–Activity Relationship, and Biological Characterization of 2,3,4,5-Tetrahydro-1H-pyrido[4,3-b]indoles as a Novel Class of CFTR Potentiators” (Journal of Medicinal Chemistry, 2020).

One assay deals with T1, CFTR (Homo sapiens, UniProt P13569).
T1 construct: primary human bronchial epithelial (HBE) cells, from non-CF individuals; endogenous in cells; host or cells: primary human bronchial epithelial cells from non-CF individuals
T1 sequence (P13569 whole entry): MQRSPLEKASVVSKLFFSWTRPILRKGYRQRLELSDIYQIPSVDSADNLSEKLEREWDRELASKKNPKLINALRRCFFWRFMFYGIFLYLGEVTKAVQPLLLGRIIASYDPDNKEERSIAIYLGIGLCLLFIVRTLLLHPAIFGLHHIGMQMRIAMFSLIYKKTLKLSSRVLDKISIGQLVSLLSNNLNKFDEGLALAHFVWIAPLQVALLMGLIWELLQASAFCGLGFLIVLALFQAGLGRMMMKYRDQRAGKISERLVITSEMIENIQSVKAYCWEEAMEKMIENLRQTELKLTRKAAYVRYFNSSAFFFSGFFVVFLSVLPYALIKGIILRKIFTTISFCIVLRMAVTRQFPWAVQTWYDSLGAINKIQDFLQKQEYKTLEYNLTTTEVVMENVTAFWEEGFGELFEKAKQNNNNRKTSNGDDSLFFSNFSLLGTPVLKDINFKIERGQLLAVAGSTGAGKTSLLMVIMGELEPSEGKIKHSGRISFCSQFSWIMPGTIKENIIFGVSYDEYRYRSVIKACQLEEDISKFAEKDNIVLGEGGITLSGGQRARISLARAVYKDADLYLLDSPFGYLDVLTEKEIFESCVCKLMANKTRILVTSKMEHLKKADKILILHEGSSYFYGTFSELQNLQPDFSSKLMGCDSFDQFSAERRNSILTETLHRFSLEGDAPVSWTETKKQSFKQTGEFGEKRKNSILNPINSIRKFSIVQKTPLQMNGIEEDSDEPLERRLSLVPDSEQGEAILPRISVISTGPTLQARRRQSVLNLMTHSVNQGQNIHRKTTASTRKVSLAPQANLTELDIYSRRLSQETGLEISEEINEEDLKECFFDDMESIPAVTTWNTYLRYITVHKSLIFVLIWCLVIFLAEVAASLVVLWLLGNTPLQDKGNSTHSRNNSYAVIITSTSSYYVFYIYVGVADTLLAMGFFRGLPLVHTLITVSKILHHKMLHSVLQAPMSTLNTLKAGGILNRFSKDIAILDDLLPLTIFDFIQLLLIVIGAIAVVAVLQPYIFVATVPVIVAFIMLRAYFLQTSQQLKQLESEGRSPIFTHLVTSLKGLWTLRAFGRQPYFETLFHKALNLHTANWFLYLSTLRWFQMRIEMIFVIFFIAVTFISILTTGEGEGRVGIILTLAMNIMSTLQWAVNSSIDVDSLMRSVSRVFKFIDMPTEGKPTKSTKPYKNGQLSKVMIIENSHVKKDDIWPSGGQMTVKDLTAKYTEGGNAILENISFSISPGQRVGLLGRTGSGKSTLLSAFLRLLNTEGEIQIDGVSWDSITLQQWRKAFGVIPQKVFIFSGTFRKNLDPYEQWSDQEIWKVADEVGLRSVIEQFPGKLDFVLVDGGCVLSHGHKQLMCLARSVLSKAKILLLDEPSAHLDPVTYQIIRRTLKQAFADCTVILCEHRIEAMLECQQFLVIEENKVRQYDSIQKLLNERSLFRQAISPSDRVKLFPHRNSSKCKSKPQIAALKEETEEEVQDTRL
As to the kind of experiment: Short-circuit current recordings on primary HBE cells from non-CF individuals. The class given is cell-based. An excerpt:
Subsequently, the ability of compounds to elicit CFTR-mediated chloride secretion was verified on primary human bronchial epithelial (HBE) cells, from non-CF individuals, in short-circuit current experiments. In this respect, it should be noticed that potentiators are also able to stimulate wild-type CFTR, provided that a submaximal cAMP-dependent stimulation is applied.[20],[22] Accordingly, cells were stimulated with a submaximal concentration of the cAMP analogue, CPT-cAMP, followed by increasing concentrations of the potentiator hit.[20],[22]
Finally, potentiator 39 and VX-770 were further evaluated in primary HBE cells from non-CF individuals, using short-circuit current measurements, to assess the ability of compounds to maximally activate CFTR function in the presence of a submaximal cAMP stimulation. After the addition of amiloride to inhibit sodium absorption through the ENaC channel, the potentiators were added at the maximal effective concentration (1 μM) after which epithelia were stimulated with a submaximal concentration of CPT-cAMP (5 μM), followed by a maximal concentration of the cAMP analogue (100 μM) (Figure 8). We then measured the extent of CFTR-mediated chloride current elicited by submaximal cAMP stimulation in the presence of a potentiator and compared it to total CFTR-mediated chloride current, determined as the current inhibited by CFTR inhibitor-172. In parallel, other epithelia were stimulated only with the two concentrations of the cAMP analogue, in the absence of a potentiator.
Primary bronchial epithelial cells were cultured as previously described.[58] In brief, epithelial cells were cultured in a serum-free medium (LHC9 mixed with RPMI 1640, 1:1) supplemented with hormones and supplements to support cell number amplification. Then, the cells were seeded at high density on porous membranes (500,000 cells for 1 cm^2 Snapwell inserts, for Ussing chamber studies; 200,000 cells for 0.33 cm^2 Mini-Transwell inserts, for TEER/PD measurements). After 24 h, the serum-free medium was replaced with Dulbecco’s modified Eagle’s medium (DMEM)/Ham’s F12 containing 2% fetal bovine serum (FBS) plus hormones and supplements. Differentiation of cells to form a tight epithelium was monitored by measuring transepithelial electrical resistance and potential difference with an epithelial voltohmmeter (EVOM1, World Precision Instruments). […]
Differentiated bronchial epithelia on Snapwell inserts were mounted in a Ussing chamber with internal fluid circulation. […] The short-circuit current was recorded with a PowerLab 4/25 (ADInstruments) analog-to-digital converter connected to a personal computer.

The next assay addresses T2, G551D-CFTR (Homo sapiens, UniProt P13569, G551D).
T2 construct: expressed in transfected cells
Kind of assay: HS-YFP-based assay on G551D-CFTR FRT cells. The assay is classed as cell-based. As for the experimental part: The primary hits were confirmed by testing them at different concentrations, in order to extrapolate the dose–response relationship. First, we focused on the F508del mutant. The compounds were tested in the low micromolar range, in the presence of forskolin (10 μM), on F508del-CFTR FRT cells following rescue of the trafficking defect by low-temperature incubation, as done for the primary screening. The most interesting hits were subsequently tested for their ability to overcome the more severe gating defect of pure class III mutant using FRT cells stably expressing G551D-CFTR (Figure 3B).
A small set of selected potentiators with good efficacy and potency on F508del-CFTR FRT cells (Figure 6A) was also tested at three concentrations on G551D-CFTR FRT cells (Figure 6B).
FRT cells stably expressing mutant F508del-CFTR or G551D-CFTR and the halide-sensitive yellow fluorescent protein (HS-YFP) YFP-H148Q/I152L and CFBE41o-cells stably expressing F508del-CFTR and HS-YFP were generated as previously described.[21],[57] FRT cells were cultured using the Coon’s modification of Ham’s F12 medium, while CFBE41o-cells were cultured in the modified Eagle’s medium. Media were supplemented with 10% fetal calf serum, 2 mM L-glutamine, 100 U/mL of penicillin, and […] of streptomycin. […]
Prior assay, cells were washed with phosphate-buffered saline (PBS) containing (in mM) 137 NaCl, 2.7 KCl, 8.1 Na2HPO4, 1.5 KH2PO4, 1 CaCl2, and 0.5 MgCl2. […] Cells were then transferred to microplate readers (FluoStar Optima; BMG Labtech, Offenburg, Germany) for CFTR activity determination. The plate readers were equipped with high-quality excitation (HQ500/20X: 500 ± 10 nm) and emission (HQ535/30M: 535 ± 15 nm) filters for YFP (Chroma Technology). The assay consisted of a continuous 14 s fluorescence reading, 2 s before and 12 s after injection of 165 μL of an iodide-containing solution (PBS with Cl^– replaced by I^–; final I^– concentration 100 mM). Data were normalized to the initial background-subtracted fluorescence. […]

The structures appear in SMILES notation.

T2 sequence (P13569 whole entry G551D): as the sequence (P13569 whole entry) above, with G551D counted along it

On to `Cc1ccc(F)c2[nH]c3c(c12)CN(C(=O)c1cc(C(F)(F)F)[nH]n1)[C@H](C)C3` [Compound 39, (R)-(6-Fluoro-3,9-dimethyl-1,3,4,5-tetrahydro-2H-pyrido[4,3-b]indol-2-yl)-(5-(trifluoromethyl)-1H-pyrazol-3-yl)methanone], for which the “comparison of effectiveness of potentiators” value on CFTR (1 μM for both compounds, Figure 8B) is “similarly effective”. Further, the “increase of the fraction of CFTR-mediated chloride current activated by submaximal cAMP stimulation” value at CFTR (potentiator 1 μM, CPT-cAMP 5 μM, versus no potentiator) is recorded as “more than 2 fold”. Besides, the “activity compared to VX-770 on G551D-CFTR FRT cells” value at G551D-CFTR (at 0.56 μM) is “decrease in activity”; at G551D-CFTR (at the highest concentrations (20–3.3 μM)), “comparable pattern of activity”. The “potency ranking on G551D-CFTR FRT cells” value at G551D-CFTR (tested at three concentrations, Figure 6B) was “the most potent one”.
